Test [1] has as its system chemoresistant tumor types, including human melanoma and lung, colon, and brain cancers. Particulars: cited from earlier work.
A further test deals with tubulin. The conditions noted are these: cited from earlier work.
A further test has as its system microtubule assembly. The conditions noted are these: cited from earlier work.
The next test concerns mitosis. The conditions noted are these: cited from earlier work.
A further test relates to BXPC-3. The experiment in a line: Antitumor Activity (in vitro), Pancreas-a BXPC-3. Format: cell-based. The conditions noted are these: Homo sapiens. The method, then:
(§1) Trienes (+)-3a and (+)-3b were tested for antitumor activity generally in accordance with the procedure described by Bai, et al., Biochemistry 1995, 34, 9714.

The subject of another test is SK-N-SH. The experiment in a line: Antitumor Activity (in vitro), Neuroblast SK-N-SH. Format: cell-based. Particulars: Homo sapiens. On the procedure:
as §1

The subject of a further test is SW 1736. Briefly: Antitumor Activity (in vitro), Thyroid ca SW 1736. The conditions noted are these: Homo sapiens. It counts as cell-based. On the procedure: as §1
The test system of a further test is NCI-H460. The experiment in a line: Antitumor Activity (in vitro), Lung-NSC NCI-H460. Particulars: Homo sapiens. Format: cell-based. The method, then:
as §1

The next test concerns FADU. Briefly: Antitumor Activity (in vitro), Pharynx-sq FADU. Particulars: Homo sapiens. It counts as cell-based. On the procedure: as §1
In a further test the test system is DU-145. The experiment in a line: Antitumor Activity (in vitro), Prostate DU-145. It counts as cell-based. Particulars: Homo sapiens. On the procedure: as §1
For another test, the system named is human cancer cell lines. Briefly: antitumor activity against a series of human cancer cell lines. It counts as cell-based. The method, then: as §1

These results are taken from patent US5952376A, “Trienyl compounds” (The Trustees of the University of Pennsylvania, priority 1997, dated 1999).

For Spongistatin 1, the “activity against chemoresistant tumor types” value in [1] was “active”. Also, the binding to tubulin entry with tubulin was “binding to tubulin”. Moreover, the blocking microtubule assembly entry in the test with microtubule assembly is “blocking microtubule assembly”. Further, the inhibition of mitosis result in the test on mitosis is “inhibits mitosis”.
In the case of `C=C(Cl)/C=C/C(O)CC(=C)C[C@H]1OC(OC)[C@H](OCc2ccccc2)[C@@H](OCc2ccccc2)[C@@H]1OCc1ccccc1` (single isomer, unassigned) [Triene 3b], the 50% growth inhibitory concentration (GI50) with BXPC-3 was 5300 nM; with SK-N-SH, 3600 nM; in the test with SW 1736, 9600 nM; with NCI-H460 it was 11000 nM; in the test with FADU, 8300 nM; in the test on DU-145, above 16000 nM. In addition, the antitumor activity result with human cancer cell lines is “active”.
Take `C=C/C=C/C(O)CC(=C)C[C@H]1OC(OC)[C@H](OCc2ccccc2)[C@@H](OCc2ccccc2)[C@@H]1OCc1ccccc1` (single isomer, unassigned) [Triene 3a]: the concentration for 50% growth inhibition (GI50) in the test on BXPC-3 was found to be 440 nM; with SK-N-SH, 540 nM; in the test with SW 1736, 1200 nM; in the test with NCI-H460, 460 nM; with FADU, 470 nM; in the test with DU-145, 560 nM. For the same molecule, the antitumor activity result with human cancer cell lines is listed as “active”.
